From patent publication US20240382564A1, “Methods and Compositions for Treating Muscular Dystrophy and Memory Impairment” (Allysta Pharmaceuticals, Inc., priority 2023, published 2024)
Where no end group is shown, it is not given here. [ ]: non-standard residue; d: D form. Nva = CCC[C@H](N)C(=O)O

Experiments:
Format in all cases: in vivo, mouse
D2.mdx mice [1] = assay: In-vitro diaphragm force
Procedure: D2.mdx mice were treated with ALY688 at two different dosages; high dose (HD; 15 mg/kg body weight/day) or low dose (LD; 3 mg/kg body weight/day) dissolved in saline. A separate group of mice were treated with saline alone (VEH, vehicle). Treatment was provided via subscapular subcutaneous injections from 7 days of age to 28-30 days. […] At 28-30 days of age, mice were anaesthetized with isoflurane vaporized in medical air (21% oxygen) at a 2 L/min flow rate. Due to tissue limitations in limb muscle, certain measures were performed separately in tibialis anterior and quadriceps across several phases of breeding. […]
A silk suture was attached to the central tendons and the ribs and secured in a bath with oxygenated Ringers solution containing (in mM) 121 NaCl, 5 KCl, 1.8 CaCl2, 0.5 MgCl2, 0.4 NaHPO4, 24 NaHCO3, 5.5 glucose and 0.1 EDTA; pH 7.3 (95% O2/5% CO2) maintained at 25° C. with ribs secured to the force transducer with an s-hook and central tendon to the lever arm. […] After the force-frequency protocol was assessed, a 5 minute rest period was provided before a fatiguing protocol was performed (70 Hz for 350 ms every 2 seconds for 5 minutes). Recovery from fatigue was assessed at 5-, 10- and 15-minutes post fatigue at the frequency that elicited maximum force in the force-frequency protocol. […]

D2.mdx mice [2] = assay: Chamber-specific cardiac fibrosis, histopathological assessment
Procedure: D2.mdx mice were treated daily subcutaneously beginning at 7 days of age for 3 weeks at 1 μL/g with ALY688 at 15 mg/kg body weight (high dose drug; HD) or with a saline (VEH) control. Mice were compared to age-matched wildtypes (DBA/2J). […] However, ADP-stimulated respiration supported by pyruvate was increased in VEH (36%) and HD (46%) vs wildtype whereas HD had no effect vs VEH.

D2.mdx mice [3] = assay: Serum cytokine profiling (LEGENDplex)
Procedure: Male D2.mdx mice originated from a colony maintained at York University (Toronto, Canada) and sourced from Jackson Laboratories (Stock Number 013141, Bar Harbor, United States). Mice were treated daily from days 7 to 28 of age with ALY688 at 15 mg/kg b.w. (D2.mdx-ALY688) or saline control (D2.mdx-VEH). This age was chosen given it captures an early stage of disease progression in cardiac and skeletal muscle. Mice were sacrificed 20-24 hr after the last dose. Breeding of wildtype mice was unsuccessful. Instead, three-week-old wildtype DBA/2J WT mice (D2A) were obtained from Jackson Laboratories (Stock number 000671, Bar Harbor, United States) and allowed to acclimatize for one week before sacrifice. Mice were housed in standard 12:12-hr light:dark cycles and were allowed access to standard rodent chow and water ad libitum. 4 days prior to sacrifice, all groups underwent novel object recognition acclimatization and testing as described below. Mice were anesthetized under 5% isoflurane vaporized in medical air (21% oxygen) at a flow rate of 2 L/min and then maintained at 2-3% prior to euthanasia by exsanguination. Muscles were removed and used for another investigation (under review at the time of this submission). The right and left hippocampus were then quickly dissected from the brain with a portion placed immediately into ice-cold BIOPS, containing (in mM): 50 MES Hydrate, 7.23 K2EGTA, 2.77 CaK2EGTA, 20 imidazole, 0.5 dithiothreitol, 20 taurine, 5.77 ATP, 15 PCr, and 6.56 MgCl2·6H2O (pH 7.1) or flash-frozen in liquid nitrogen and stored at −80° C. for RNA isolation and western blotting. All experiments and procedures were approved by the Animal Care Committee at York University (AUP Approval Number 2016-18) in accordance with the Canadian Council on Animal Care.
Protein contents of TGF-β, TNF-α, IL-1β, IL-6 and IL-10 in serum were measured by flow cytometry using LEGENDplex™ Mouse Custom Panel (BioLegend; San Diego, CA, USA). […] The FCS files generated on the flow cytometer were analyzed using the LEGENDplex™ cloud-based analysis software.

[dN]IP[Nva]LY[dS]FA[dS]-NH2 [ALY688]
muscle force production, change (D2.mdx mice [1]; diaphragm strips, both doses): −2.3% to −43.0
recovery from fatigue, change (D2.mdx mice [1]; diaphragm, high dose, printed range also covers quadriceps low dose): −5.3% to −50.9
left atrial fibrosis (D2.mdx mice [2]; HD 15 mg/kg s.c. daily for 3 weeks from 7 days of age): completely rescued
right ventricular (RV) fibrosis (D2.mdx mice [2]; HD 15 mg/kg s.c. daily for 3 weeks, VEH +385%): completely rescued
serum IL-1β (D2.mdx mice [3]; relative to D2.mdx-VEH): increased
serum IL-6 (D2.mdx mice [3]; vs D2.mdx-VEH): attenuated
serum IL-10 (D2.mdx mice [3]; vs wildtype): increasing
